Data as given in patent US10392398B2, “Inhibitors of Late SV40 Factor (LSF) as cancer chemotherapeutics” (TRUSTEES OF BOSTON UNIVERSITY, priority 2010, dated 2019).
Read-outs that look alike come from different tables or passages of the source.

Key:
Type in all cases: cell-based
NIH/3T3 cells = assay: Cell proliferation assay (MTS), NIH/3T3; settings: for GI50 / IC50: Mus musculus, NIH3T3; for IC50: Example 7, FIG. 8, read-out: growth inhibition of NIH/3T3 Cell Line IC50; for antiproliferative activity relative to comparator: against each cell line (NIH/3T3, HeLa, A549), in words
Description: (§1) Cells were plated at 3×10^4 cells/mL, A549 and HeLa, and 1×10^4 cells/mL, NIH/3T3, in 96-well plates and incubated for 24 h to allow for cell adhesion. LSF-library compounds were dissolved in DMSO, serial diluted in appropriate medium and added to cells in triplicate (2 plates). DMSO was added to control wells at a final concentration of 1%. After 72 h incubation in the presence of compound, confluent cells were assayed for growth proliferation with CellTiter 96® AQueous One Solution Cell Proliferation Assay (MTS) (Promega) according to the manufacturer's protocol. Plates were read at 490 nm on a microplate reader, and IC50 values were determined as the percentage of compound-treated cell growth to control cell growth. HCC cells—one hour after plating HCC cells onto 96-well plates, compound or vehicle (DMSO) was added to the desired concentrations, keeping DMSO at 0.5%. At indicated time points, cell viability was assayed using the CellTiter 96® Non-Radioactive Cell Proliferation Assay (MTT) (Promega).
(§2) QGY-7703 and A549 cells were cultured at 37° C. in 5% CO2 in DMEM (Dulbecco's modification of Eagle's Medium; Corning) supplemented with 10% Fetal Bovine Serum (FBS; Invitrogen). NIH-3T3 cells were cultured at 37° C. in 5% CO2 in DMEM supplemented with 10% Fetal Calf Serum (FCS; Atlanta Biologicals). For cell viability assays, 1,500 cells were seeded in 96-well plates and treated with FQI-34 or vehicle (DMSO) at appropriate concentrations (DMSO at 1%) after 20 hours. After 72-hour incubation with compound or vehicle, cell growth was assessed via the Promega CellTiter 96® AQueous One Solution Cell Proliferation Assay, a colorimetric method to determine the number of viable cells. 20 μL of the CellTiter 96® AQueous One Solution Reagent was added directly into cultured wells and incubated for one hour, after which the absorbance at 490 nm was read with a 96-well plate reader (Opys MR Microplate Reader). The CellTiter 96® AQueous One Solution contains an MTS tetrazolium compound which is bioreduced by cells into a colored formazan product that is soluble in tissue culture medium. The quantity of formazan product as measured by absorbance is directly proportional to the number of living cells in culture. GI50 values were determined from plots of the percentage of compound-treated cell growth to vehicle cell growth vs. compound concentration (GraphPad Prism; non-linear regression 4-parameter curve fit with variable slope).

HeLa cells = assay: Cell proliferation assay (MTS), HeLa; settings: Homo sapiens; for IC50: HeLa, Example 7, FIG. 8, read-out: growth inhibition of HeLa Cell Line IC50; for GI50: 72 h, MTS
Description: as §1

A549 cells = assay: Cell proliferation assay (MTS), A549; settings: Homo sapiens; for GI50: 72 h, MTS, read-out: GI50 (μM) A549; for IC50: Example 7, FIG. 8, read-out: growth inhibition of A549 Cell Line IC50
Description: as §1, §2

LSF = molecular target: T1, LSF (Homo sapiens, UniProt Q12800); assay: LSF-dependent luciferase reporter assay in NIH 3T3 cells; set-up: expressed in transfected cells; host or cells: NIH 3T3; settings: for activity in the LSF luciferase reporter assay relative to comparator: in words; for IC50: NIH 3T3 cells, dual luciferase, ranges where few concentrations tested, read-out: IC50 (μM) LSF-dependent reporter assat NIH 3T3
T1 sequence (Q12800 1-502): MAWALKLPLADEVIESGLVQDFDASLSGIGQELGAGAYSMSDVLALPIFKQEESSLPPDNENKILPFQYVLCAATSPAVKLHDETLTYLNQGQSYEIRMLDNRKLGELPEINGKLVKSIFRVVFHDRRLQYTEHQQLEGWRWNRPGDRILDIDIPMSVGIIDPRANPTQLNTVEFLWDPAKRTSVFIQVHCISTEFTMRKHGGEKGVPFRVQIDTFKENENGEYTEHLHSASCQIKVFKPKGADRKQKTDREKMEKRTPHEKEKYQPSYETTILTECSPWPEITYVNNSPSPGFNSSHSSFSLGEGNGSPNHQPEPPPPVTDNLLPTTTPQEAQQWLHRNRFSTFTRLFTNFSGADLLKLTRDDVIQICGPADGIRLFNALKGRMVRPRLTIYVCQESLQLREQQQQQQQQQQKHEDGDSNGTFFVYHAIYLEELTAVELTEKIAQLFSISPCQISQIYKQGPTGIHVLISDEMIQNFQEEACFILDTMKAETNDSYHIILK
Description: NIH 3T3 cells were transfected with the expression construct pEF1α-LSF, a LSF expression vector^6,20; the reporter construct pGL3B-WT4E1b, a firefly luciferase reporter vector driven by LSF^12; phRL-TK, a control renilla luciferase reporter vector; and pEFGP, essentially as previously described^12. Five hours after transfection, either vehicle (DMSO) or FQI compound was added, keeping DMSO at 0.5%. Cell extracts were harvested 36 hours post-transfection and firefly and renilla luciferase activities measured via a dual luciferase assay (Promega). Five μl of extract was mixed with 30 μl of luciferase assay reagent (Promega), and luminescence measured for 10 seconds using a 20/20n luminometer (Turner Biosystems). Subsequently, 30 μl of Stop & Glo reagent (Promega) was added, and luminescence also measured for 10 seconds. LSF transactivation activity is given as relative luciferase activity, the ratio of firefly to renilla activities.
NIH-3T3 cells were cultured at 37° C. in 5% CO2 in DMEM (Dulbecco's modification of Eagle's Medium; Corning) supplemented with 10% FCS (FCS; Atlanta Biologicals). Approximately 24 hours prior to transfection, 200,000 cells were plated in 35 mm dishes. After 24 hours, cells were ˜70% confluent, and were transfected for 5 hours with pEF1α-LSF, the reporter construct pGL3B-WT4E1b, phRLTK, and pEFGP (Grant, T. J. et al. Antiproliferative small-molecule inhibitors of transcription factor LSF reveal oncogene addiction to LSF in hepatocellular carcinoma. PNAS (2012), 109, 1-6). Vehicle (DMSO) or FQI-34 was then added, keeping the DMSO at 0.5%. Cell extracts were harvested 36 h post-transfection, and firefly and renilla luciferase activities were measured via a dual luciferase assay (Promega Dual-Luciferase Reporter Assay System). Relative luciferase activity represents firefly luciferase activity normalized to that of renilla luciferase in each extract. IC50 values were determined from plots of normalized luciferase activity vs. compound concentration (Prism GraphPad; non-linear regression 4-parameter curve fit with variable slope).

QGY-7703 HCC cells = assay: HCC cell viability (MTT), QGY-7703; settings: in words
Description: as §1

cancer cell lines = assay: Inhibition of growth of cancer cell lines in vitro (FIGS. 9 and 10); settings: 0.2-33 μM
Description: FIG. 9A-9K show the results of inhibition of growth of cancer cell lines in vitro by FQI1 (Formula (IV)). The effect of inhibition of cell growth (represented as a fraction of 1) of increasing concentrations of FQI1 between 0.2-33 μM is shown.
The effect of inhibition of cell growth (represented as a fraction of 1) of increasing concentrations of FQI2 between 0.2-33 μM is shown.

QGY-7703 cells = assay: Cell viability GI50 (MTS), QGY-7703; settings: Homo sapiens
Description: as §2

[1] = 72 h, MTS, read-out: GI50 (μM) NIH/3T3
[2] = Table 3, read-out: GI50 (μM) NIH 3T3

| IC50 (HeLa cells) [µM] | IC50 (A549 cells) [µM] | IC50 (LSF) [µM] | SMILES | IC50 (NIH/3T3 cells) [µM] | GI50 (NIH/3T3 cells; [2]) [µM] | also measured |
| --- | --- | --- | --- | --- | --- | --- |
| 6.6 ± 1.2 | > 300 | – | CCOc1ccccc1C1CC(=O)Nc2cc3c(cc21)OC(F)(F)O3 (stereo not drawn) [FQI9, 8-(2-ethoxyphenyl)-2,2-difluoro-7,8-dihydro-[1,3]dioxolo[4,5-g]quinolin-6(5H)-one] | 30 ± 3.5 | – | – |
| – | – | 3 to 4 | COc1ccccc1C1CC(=O)Nc2cc3c(cc21)OCO3 (stereo not drawn) [FQI12, 8-(2-methoxyphenyl)-7,8-dihydro-[1,3]dioxolo[4,5-g]quinolin-6(5H)-one] | – | 4 ± 0.8 | – |
| – | > 10000 | – | COc1ccc2c(c1)C(c1ccccc1OC)CC(=O)N2 (stereo not drawn) [FQI14, 6-methoxy-4-(2-methoxyphenyl)-3,4-dihydroquinolin-2(1H)-one] | – | – | – |
| > 200 | > 200 | – | COc1ccccc1C1CC(=O)Nc2cc(OC)c(OC)c(OC)c21 (stereo not drawn) [FQI15, 5,6,7-trimethoxy-4-(2-methoxyphenyl)-3,4-dihydroquinolin-2(1H)-one] | > 200 | – | – |
| – | – | 2 to 4 | CCCOc1ccccc1C1CC(=O)Nc2cc3c(cc21)OCO3 (stereo not drawn) [FQI16, 8-(2-propoxyphenyl)-7,8-dihydro-[1,3]dioxolo[4,5-g]quinolin-6(5H)-one] | – | 2.3 ± 0.5 | – |
| > 200 | > 200 | – | COc1ccc(C2CC(=O)Nc3cc4c(cc32)OCO4)cc1 (stereo not drawn) [FQI19, 8-(4-methoxyphenyl)-7,8-dihydro-[1,3]dioxolo[4,5-g]quinolin-6(5H)-one] | > 200 | – | – |
| 67 ± 9.9 | > 200 | – | COc1ccc(C2CC(=O)Nc3ccc(OC)cc32)cc1 (stereo not drawn) [FQI21, 6-methoxy-4-(4-methoxyphenyl)-3,4-dihydroquinolin-2(1H)-one] | > 200 | – | – |

Continued, compound first:

| SMILES | IC50 (HeLa cells) [µM] | IC50 (A549 cells) [µM] | IC50 (LSF) [µM] | IC50 (NIH/3T3 cells) [µM] | GI50 (NIH/3T3 cells; [2]) [µM] | also measured |
| --- | --- | --- | --- | --- | --- | --- |
| CCOc1ccccc1[C@@H]1CC(=O)Nc2cc3c(cc21)OCO3 [(R)-FQI1] | 8 ± 1 | 18 ± 3.2 | – | 45 ± 6.9 | – | GI50 (NIH/3T3 cells; [1]): 45 ± 7 µM; times less active than FQI1 in cell proliferation assays (NIH/3T3 cells; NIH/3T3, HeLa and A549): ~10 times; GI50 (HeLa cells): 8 ± 1 µM; GI50 (A549 cells): 18 ± 3.2 µM; activity in the LSF luciferase reporter assay relative to comparator (LSF): much less active than the racemate |
| CCOc1ccccc1[C@H]1CC(=O)Nc2cc3c(cc21)OCO3 [(S)-FQI1] | 0.3 ± 0.025 | 3 ± 1.3 | 0.8 | 1.1 ± 0.45 | 1.1 ± 0.4 | GI50 (NIH/3T3 cells; [1]): 1.1 ± 0.41 µM; antiproliferative activity relative to comparator (NIH/3T3 cells): at least twice as active; GI50 (HeLa cells): 0.3 ± 0.03 µM; GI50 (A549 cells): 3 ± 1.3 µM; fold more active than the racemate in the luciferase reporter assay (LSF; versus racemic FQI1): approximately 3 fold |
| CCOc1ccccc1-c1cc(=O)[nH]c2cc3c(cc12)OCO3 [FQI2, 8-(2-ethoxyphenyl)-[1,3]dioxolo[4,5-g]quinolin-6(5H)-one] | – | – | 0.8 | – | 0.71 ± 0.13 | GI50 (NIH/3T3 cells; [1]): 0.71 ± 0.13 µM; antiproliferative activity relative to comparator (NIH/3T3 cells): as active as (S)-FQI1; GI50 (HeLa cells): 0.4 ± 0.04 µM; cellular proliferation of QGY-7703 cells (MTT) (QGY-7703 HCC cells): decreased overall cellular proliferation; GI50 (A549 cells): 1.9 ± 0.9 µM; growth of a variety of cancers, in vitro cell assay (cancer cell lines): inhibit the growth of a variety of cancers; activity in the LSF luciferase reporter assay relative to comparator (LSF): as effective as the (S)-enantiomer |
| CCCCOc1ccccc1C1CC(=O)Nc2cc3c(cc21)OCO3 (stereo not drawn) [FQI3, 8-(2-Butoxyphenyl)-7,8-dihydro-[1,3]dioxolo[4,5-g]quinolin-6(5H)-one] | – | – | 3 to 5 | – | 2.6 ± 0.5 | – |
| CCOc1ccccc1C1CC(=O)Nc2cc(OC)c(OC)c(OC)c21 (stereo not drawn) [FQI11, 4-(2-ethoxyphenyl)-5,6,7-trimethoxy-3,4-dihydroquinolin-2(1H)-one] | > 200 | > 200 | – | > 200 | – | – |
| COc1ccccc1C1CC(=O)Nc2cc3c(cc21)OC(F)(F)O3 (stereo not drawn) [FQI13, 2,2-difluoro-8-(2-methoxyphenyl)-7,8-dihydro-[1,3]dioxolo[4,5-g]quinolin-6(5H)-one] | 8.8 ± 1.4 | > 300 | – | 72 ± 9.8 | – | – |
| CCOCCOCCOCCCc1ccc(C2CC(=O)Nc3cc4c(cc32)OCO4)c(OCC)c1 (stereo not drawn) [PEG-FQI] | – | – | – | – | – | GI50 (QGY-7703 cells; Table 5, read-out: QGY-7703 GI50): > 10 µM; GI50 (QGY-7703 cells; Table 8, read-out: QGY-7703 GI50): > 10 µM |
